# Measurements from patent publication US10611750B2, “Tetrahydroquinoline compositions as bet bromodomain inhibitors” (FORMA Therapeutics, Inc., priority 2013, dated 2020).
# Like-named read-outs stand apart in the source and are kept apart here.
# Columns and labels:
# [1] = biological target: T1, BRD4 Bromodomain 2 (BRD4 BD2) (Homo sapiens, UniProt O60885); assay: AlphaScreen binding assay, BRD4 BD2; details: His-tagged BRD4 BD2 100 nM, biotinylated H4 (1-21) K5/8/12/16 tetra-acetylated peptide 100 nM, compounds listed under IC50 range headings
# T1 construct: 333-460 were cloned, expressed, and purified to homogeneity
# How it was run: (§1)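 An AlphaScreen competition format was used with His-BRD4 BD1 or BD2 and biotin-H4 K5/8/12/16-acetyl peptide, each at matched final levels of 50 nM (BD1) or 100 nM (BD2). Incubation in HEPES/NaCl buffer with 0.1% BSA and 0.01% Triton X-100 ran ≥1 h before IC50 determination.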
# [2] = test system: acute myelocytic leukemia (AML) cell line MV4-11; assay: Oncology cell growth assay (3-day proliferation, CellTiter-Glo); assay type: cell-based; details: Homo sapiens, MV4-11 cells, 3000 cells/well, compounds listed under IC50 range headings, read-out: MV411 IC50 (gIC50, inhibition of proliferation)
# How it was run: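 72 h, 37° C, 5% CO2; MV4-11, 3000 cells/well, RPMI 1640 + 10% FBS. Compound final 10, 3.3, 1.1, 0.37, 0.12, 0.041, 0.013, 0.0045 μM. Readout CellTiter-Glo luminescence; gIC50 by 4-parameter logistic fit, normalised to DMSO and no-cell background.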
# [3] = biological target: T2, BRD4 Bromodomain 1 (BRD4 BD1) (Homo sapiens, UniProt O60885); assay: AlphaScreen binding assay, BRD4 BD1; details: His-tagged BRD4 BD1 50 nM, biotinylated H4 (1-21) K5/8/12/16 tetra-acetylated peptide 50 nM, compounds listed under IC50 range headings
# T2 construct: 44-168 and BRD4 BD2
# How it was run: as §1
Structure (SMILES),IC50 [1],"IC50 ([2]; MV4-11, 72 h)",IC50 [3],IC50 ([2]; 72 hours)
"CC(=O)N1c2ccc(-c3cnn(C4CC4)c3)c(OCC3CC3(F)F)c2CC[C@@H]1C (stereo partly drawn) [I-48, 1-((S)-6-(1-cyclopropyl-1H-pyrazol-4-yl)-5-((2,2-difluorocyclopropyl)methoxy)-2-methyl-3,4-dihydroquinolin-1(2H)-yl)ethanone]",< 0.05 µM,< 0.5 µM,< 0.1 µM,–
C[C@H]1CCc2c(ccc(-c3cnn(C4CCNCC4)c3)c2Oc2ncccc2C(F)(F)F)N1C(=O)C1CC1 [I-539],0.05 to 0.5 µM,< 0.5 µM,1 to 10 µM,–
COC(=O)N1c2ccc(-c3cnn(CC(C)(C)O)c3)c(Oc3ncc(C4CC4)cn3)c2CC[C@@H]1C [I-571],0.05 to 0.5 µM,0.5 to 1 µM,1 to 10 µM,–
"COC(=O)N1c2ccc(-c3cnn(C4CCN(C)C4)c3)c(OC3CCC3)c2CC[C@@H]1C (stereo partly drawn) [I-247, (2S)-methyl 5-cyclobutoxy-2-methyl-6-(1-(1-methylpyrrolidin-3-yl)-1H-pyrazol-4-yl)-3,4-dihydroquinoline-1 (211)-carboxylate]",0.05 to 0.5 µM,< 0.5 µM,0.1 to 1 µM,–
"COC(=O)N1c2ccc(-c3cnn(C4CC4)c3)c(OCS(=O)(=O)N(C)C)c2CC[C@@H]1C [I-29, (S)-methyl 6-(1-cyclopropyl-1H-pyrazol-4-yl)-5-((N,N-dimethylsulfamoyl)methoxy)-2-methyl-3,4-dihydroquinoline-1(2H)-carboxylate]",0.05 to 0.5 µM,> 1 µM,1 to 10 µM,–
"CCCOc1c(-c2cnn(C3CCNCC3)c2)ccc2c1CC[C@H](C)N2C(C)=O [I-104, (S)-1-(2-methyl-6-(1-(piperidin-4-yl)-1H-pyrazol-4-yl)-5-propoxy-3,4-dihydroquinolin-1 (2H)-yl)ethanone]",< 0.05 µM,< 0.5 µM,< 0.1 µM,–
COC(=O)N1c2ccc(-c3cnn(CC(C)(C)O)c3)c(Oc3ncc(C(F)(F)F)cn3)c2CC[C@@H]1C [I-579],0.05 to 0.5 µM,> 1 µM,1 to 10 µM,–
"CC(=O)N1c2ccc(-c3cnn(C4CC4)c3)c(OC3CC(F)(F)C3)c2CC[C@@H]1C [I-51, (S)-1-(6-(1-cyclopropyl-1H-pyrazol-4-yl)-5-(3,3-difluorocyclobutoxy)-2-methyl-3,4-dihydroquinolin-1(2H)-yl)ethanone]",< 0.05 µM,< 0.5 µM,0.1 to 1 µM,–
COC(=O)N1c2ccc(-c3cnn(CCS(C)(=O)=O)c3)c(Oc3ncc(C(F)(F)F)cn3)c2CC[C@@H]1C [I-578],0.05 to 0.5 µM,> 1 µM,1 to 10 µM,–
"CC(=O)N1c2ccc(-c3cnn(C4CCNCC4)c3)c(Oc3ccc(C#N)cc3)c2CC[C@@H]1C [I-140, (S)-4-(1-acetyl-2-methyl-6-(1-(piperidin-4-yl)-1H-pyrazol-4-yl)-1,2,3,4-tetrahydroquinolin-5-yloxy)benzonitrile]",< 0.05 µM,< 0.5 µM,0.1 to 1 µM,–
"COC(=O)N1c2ccc(-c3cnn([C@H]4CCNC[C@@H]4F)c3)c(OC3CCC3)c2CC[C@@H]1C [I-363, methyl (2S)-5-cyclobutoxy-6-{1-[(3S,4S)-3-fluoropiperidin-4-yl]-1H-pyrazol-4-yl}-2-methyl-1,2,3,4-tetrahydroquinoline-1-carboxylate]",< 0.05 µM,< 0.5 µM,0.1 to 1 µM,–
"CC(=O)N1c2ccc(-c3cnn(C4CCNCC4)c3)c(Nc3ccccc3)c2CC[C@@H]1C [I-359, (S)-1-(2-methyl-5-(phenylamino)-6-(1-(piperidin-4-yl)-1H-pyrazol-4-yl)-3,4-dihydroquinolin-1(2H)-yl)ethan-1-one]",0.05 to 0.5 µM,–,1 to 10 µM,< 0.5 µM
"C[C@H]1CCc2c(ccc(-c3cnn(C4CCNCC4)c3)c2Oc2ccc(F)cc2)N1C(=O)C1CC1 [I-164, (S)-cyclopropyl(5-(4-fluorophenoxy)-2-methyl-6-(1-(piperidin-4-yl)-1H-pyrazol-4-yl)-3,4-dihydroquinolin-1 (2H)-yl)methanone]",< 0.05 µM,< 0.5 µM,0.1 to 1 µM,–
COC(=O)N1c2ccc(-c3cnn(C4CC4)c3)c(Oc3cnccn3)c2CC[C@@H]1C [I-561],0.05 to 0.5 µM,0.5 to 1 µM,1 to 10 µM,–
"COC(=O)N1c2ccc(-c3cnn(C4CNC4)c3)c(Oc3cccc(F)c3F)c2CC[C@@H]1C [I-270, (S)-methyl 6-(1-(azetidin-3-yl)-1H-pyrazol-4-yl)-5-(2,3-difluorophenoxy)-2-methyl-3,4-dihydroquinoline-1(2H)-carboxylate]",< 0.05 µM,< 0.5 µM,0.1 to 1 µM,–
COC(=O)N1c2ccc(-c3cnn(CC(C)(C)O)c3)c(Oc3ccc(C(F)(F)F)cn3)c2CC[C@@H]1C [I-555],0.05 to 0.5 µM,> 1 µM,1 to 10 µM,–
"CCCOc1c(C2CCN(C(C)=O)CC2)ccc2c1CC[C@H](C)N2C(C)=O [I-354, (S)-1-(4-(1-acetyl-2-methyl-5-propoxy-1,2,3,4-tetrahydroquinolin-6-yl)piperidin-1-yl)ethan-1-one]",≥ 0.5 µM,> 1 µM,≥ 10 µM,–
CC(=O)N1c2ccc(-c3cnn(C4CC4)c3)c(OCC(=O)N(C)C)c2CC[C@@H]1C [I-401],< 0.05 µM,< 0.5 µM,0.1 to 1 µM,–

# Second part, led by results:
IC50 [1],"IC50 ([2]; MV4-11, 72 h)",IC50 [3],Structure (SMILES),IC50 ([2]; 72 hours)
< 0.05 µM,> 1 µM,0.1 to 1 µM,"COC(=O)N1c2ccc(-c3cnn(C4CCNCC4)c3)c(Oc3ccc(C(N)=O)cc3)c2CC[C@@H]1C [I-161, (S)-methyl 5-(4-carbamoylphenoxy)-2-methyl-6-(1-(piperidin-4-yl)-1H-pyrazol-4-yl)-3,4-dihydroquinoline-1(2H)-carboxylate]",–
< 0.05 µM,0.5 to 1 µM,0.1 to 1 µM,COC(=O)N1c2ccc(-c3cnn(C4CCNCC4)c3)c(OCC3CCCC3)c2CC[C@@H]1C [I-462],–
0.05 to 0.5 µM,< 0.5 µM,1 to 10 µM,COC(=O)N1c2ccc(-c3cnn(C4CC4)c3)c(Oc3ccccc3)c2CCC1C (stereo not drawn) [I-599],–
0.05 to 0.5 µM,0.5 to 1 µM,1 to 10 µM,COC(=O)N1c2ccc(-c3cnn(C4CC4)c3)c(Oc3ncc(C(F)(F)F)cc3F)c2CC[C@@H]1C [I-591],–
0.05 to 0.5 µM,< 0.5 µM,0.1 to 1 µM,"CC(=O)N1c2ccc(-c3cnn(C4CCNCC4)c3)c(Oc3ncccc3Cl)c2CC[C@@H]1C [I-142, (S)-1-(5-(3-chloropyridin-2-yloxy)-2-methyl-6-(1-(piperidin-4-yl)-1H-pyrazol-4-yl)-3,4-dihydroquinolin-1 (2H)-yl)ethanone]",–
0.05 to 0.5 µM,> 1 µM,0.1 to 1 µM,CC(=O)N1c2ccc(-c3cnn(C4CC4)c3)c(OC[C@H]3CCNC3)c2CC[C@@H]1C [I-603],–
< 0.05 µM,< 0.5 µM,0.1 to 1 µM,CCCOc1c(-c2cnn(CCS(C)(=O)=O)c2)ccc2c1CC[C@H](C)N2C(C)=O [I-407],–
< 0.05 µM,< 0.5 µM,< 0.1 µM,CC(=O)N1c2ccc(-c3cnn(C4CCNCC4)c3)c(OCC3CCOCC3)c2CC[C@@H]1C [I-416],–
< 0.05 µM,< 0.5 µM,0.1 to 1 µM,"C[C@H]1CCc2c(ccc(-c3cnn(C4CCNCC4)c3)c2Oc2ccc(C#N)cc2F)N1C(=O)C1CC1 [I-152, (S)-4-(1-(cyclopropanecarbonyl)-2-methyl-6-(1-(piperidin-4-yl)-1H-pyrazol-4-yl)-1,2,3,4-tetrahydroquinolin-5-yloxy)-3-fluorobenzonitrile]",–
≥ 0.5 µM,> 1 µM,1 to 10 µM,COC(=O)N1c2ccc(-c3cnn(CCO)c3)c(Oc3ncc(F)cn3)c2CC[C@@H]1C [I-576],–
< 0.05 µM,< 0.5 µM,0.1 to 1 µM,"C[C@H]1CCc2c(ccc(-c3cnn(C)c3)c2Oc2ccccc2)N1C(=O)C1CC1 [I-224, (S)-cyclopropyl(2-methyl-6-(1-methyl-1H-pyrazol-4-yl)-5-phenoxy-3,4-dihydroquinolin-1(2H)-yl)methanone]",–
0.05 to 0.5 µM,0.5 to 1 µM,1 to 10 µM,COC(=O)N1c2ccc(-c3cnn(CCO)c3)c(Oc3ncc(C(F)(F)F)cn3)c2CC[C@@H]1C [I-580],–
0.05 to 0.5 µM,0.5 to 1 µM,0.1 to 1 µM,CC(=O)N1c2ccc(-c3cnn(C4CC4)c3)c(OCCNS(C)(=O)=O)c2CC[C@@H]1C [I-382],–
< 0.05 µM,< 0.5 µM,0.1 to 1 µM,CCCOc1c(-c2cnn(C3CC3)c2)ccc2c1CC[C@H](C)N2C(C)=O [I-387],–
0.05 to 0.5 µM,0.5 to 1 µM,1 to 10 µM,"COC(=O)N1c2ccc(-c3cnn(C4CC4)c3)c(OCCC(F)(F)F)c2CC[C@@H]1C [I-13, (S)-methyl 6-(1-cyclopropyl-1H-pyrazol-4-yl)-2-methyl-5-(3,3,3-trifluoropropoxy)-3,4-dihydroquinoline-1(2H)-carboxylate]",–
< 0.05 µM,< 0.5 µM,0.1 to 1 µM,CC(=O)N1c2ccc(-c3cnn(C4CC4)c3)c(Oc3ccccc3)c2CC[C@@H]1C [I-594],–
